Measured values published in patent publication US20160010154A1, “SCREENING ASSAYS FOR THERAPEUTICS FOR PARKINSON'S DISEASE” (THE PARKINSON'S INSTITUTE, priority 2012, published 2016).

Legend:
[1] = test system: LRRK2 G2019S mutant and ZFN-corrected NPCs; assay: ROS production by CM-H2DCFDA fluorescence, flow cytometry; format: cell-based, human; settings: 200 μM for 60 min, normal growth conditions, both cell lines
Description: Cells were assayed for free radical production using CM-H2DCFDA that can be oxidized and rendered fluorescent by hydroxyl radicals produced by mitochondria. See, e.g., Petronilli et al. (1999) Biophysical journal 76:725-734; Nicholls (2009) Biochimica et biophysica acta 1787:1416-1424. Cytoplasmic fluorescence of this indicator dye in viable cells was assayed by flow cytometry to obtain a signature for cellular oxidative stress.
In particular, for stress experiments, NPCs were seeded 24 hours before being cultured under the following selective media conditions for an additional 18 hours: Standard NPC growth medium as above (HG=high glucose), HG plus 20 μM rotenone (HG+R) (SIGMA # R-8875) or an NPC growth medium formulation based on HG medium without glucose (NG, Life Techn. Neurobasal-A, Formula 05-0128DJ).
For flow cytometry, NPCs were seeded at 80% confluence on either 24-well (1-2×10^5 cells) or 48 well plates (5×10^4 cells) (NUNC #s 142475, 150687) on Geltrex (100 ug/ml protein) coated plates 24 hours before the experiment and then challenged as described above. In general two replicate wells were analyzed in each experimental run. After the respective treatment, cells were sampled by flow cytometry with an Accuri™ C6 cytometer with C-Sampler™ (BD Accuri) and subsequently analyzed using the Cflow® analysis software. […]

[2] = test system: LRRK2 mutant and ZFN-corrected NPCs; assay: Mitochondrial calcein retention (MTP opening), HCI microscopy; format: cell-based, human; settings: rotenone stress, corrected and LRRK2 mutant lines
Description: Cells grown on high glucose (HG) with or without 20 uM rotenone (R) or with radical generator TBHP (200 uM). Cells were analyzed by flow cytometry and mean CM-DCFDA fluorescence (Ex./Em. 495/529 nm) of live cells was then normalized to number of viable cells. […] Images: Depicted are representative image overlays showing mitochondrial fluorescence patterns indicative of mitochondrial membrane potential for the corrected (1.7) and uncorrected (1.13) NPCs. […] Mitochondria were loaded with calcein AM and cytosolic fluorescence was quenched by CoCl2. Graph: Relative amount of mitochondrial localized calcein fluorescence identified by Mitotracker™ Red CMXROS co-localization was normalized to cell number. Images: Representative image overlays showing mitochondrial fluorescence patterns indicative of mitochondrial calcein retention and mitochondrial integrity in corrected (1.7) and uncorrected (1.13) NPCs. FIG. 4D is a graph showing HCI analysis of caspase 3/7 activation in LRRK2 NPCs measured by fluorescence activated by caspase 3/7 mediated cleavage of a DEVD peptide-DNA dye conjugate. NPCs were incubated with the caspase substrate and the % of caspase substrate fluorescence positive cells (identified by nuclear Hoechst 33342 counterstain) was determined from 4 sites acquired at 10× magnification. […]

SMILES	ROS response to radical generator [1]	mitochondrial calcein loading [2]
CC(C)(C)OO [TBHP]	increase of ROS	–
C=C(C)[C@H]1Cc2c(ccc3c2O[C@@H]2COc4cc(OC)c(OC)cc4[C@@H]2C3=O)O1 [rotenone]	–	increased mitochondrial calcein loading
